Source: ChEMBL document CHEMBL1157707, “Lead optimization of N-3-substituted 7-morpholinotriazolopyrimidines as dual phosphoinositide 3-kinase/mammalian target of rapamycin inhibitors: discovery of PKI-402” (J Med Chem, 2010)
In brackets after ≈: the same amount, converted by molar mass. Activity calls are given as the source filed them. The calls are words filed in the database; no cut-off is given here.

Legend:
[1] = Solubility at pH 7.4; assay type: physicochemical; conditions: buffer
[2] = test system: PC-3; test: cells; conditions: Homo sapiens, PC-3, 72 h
[3] = Metabolic stability in mouse liver microsomes assessed as half life; assay type: ADME, Microsome
[4] = target: Phosphatidylinositol 4,5-bisphosphate 3-kinase catalytic subunit gamma isoform (Homo sapiens, UniProt P48736); test: Inhibition of human PI3Kgamma by fluorescence polarization format assay
[5] = Metabolic stability in human liver microsomes assessed as half life; assay type: ADME, Microsome
[6] = test system: MDA-MB-361; test: cells; conditions: Homo sapiens, MDA-MB-361, 72 h
[7] = cells; conditions: Homo sapiens, MDA-MB-361, 4 h
[8] = in vitro; conditions: rat
[9] = target: Serine/threonine-protein kinase mTOR (Homo sapiens, UniProt P42345); test: Inhibition of mTOR by DELFIA
[10] = target: Phosphatidylinositol 4,5-bisphosphate 3-kinase catalytic subunit alpha isoform (Homo sapiens, UniProt P42336)
[11] = Solubility at pH 3; assay type: physicochemical; conditions: buffer
[12] = organism: Mus musculus; test: Toxicity in mouse assessed as weight loss; assay type: organism-based; conditions: in vivo
[13] = Plasma concentration in human MDA-MB-361 cells implanted mouse at 50 mg/kg, iv after 8 hrs; assay type: ADME, organism-based; design: dose 50 mg/kg, route intravenous
[14] = test system: Mus musculus; test: Antitumor activity against human MDA-MB-361 cells implanted in mouse assessed as […] of cleavage of PARP at 50 mg/kg, iv after 8 hrs; assay type: functional, organism-based; design: dose 50 mg/kg
[15] = test system: Mus musculus; test: Antitumor activity against human MDA-MB-361 cells implanted in mouse assessed as suppression of Akt S473 phosphorylation at 50 mg/kg, iv after 8 hrs; assay type: functional, organism-based; design: dose 50 mg/kg
[16] = Drug level in human MDA-MB-361 cells implanted mouse tumor at 50 mg/kg, iv after 8 hrs; assay type: ADME, organism-based, Neoplasm; design: dose 50 mg/kg, route intravenous; conditions: read-out: Drug uptake
[17] = test system: MDA-MB-361; test: Antitumor activity against human MDA-MB-361 cells implanted in mouse assessed as inhibition of regrowth at until day 70 at 100 mg/kg, iv once daily for 5 days; assay type: functional, organism-based; design: dose 100 mg/kg
[18] = test system: Mus musculus; test: Antitumor activity against human MDA-MB-361 cells implanted in mouse assessed as […] of cleavage of PARP at 100 mg/kg, iv after 8 hrs; assay type: functional, organism-based; design: dose 100 mg/kg
[19] = test system: Mus musculus; test: Antitumor activity against human MDA-MB-361 cells implanted in mouse assessed as suppression of S6 phosphorylation at 50 mg/kg, iv after 8 hrs; assay type: functional, organism-based; design: dose 50 mg/kg
[20] = test system: MDA-MB-361; test: Antitumor activity against human MDA-MB-361 cells implanted in mouse assessed as inhibition of regrowth at until day 16 and 20 at 25 mg/kg, iv once daily for 5 days; assay type: functional, organism-based; design: dose 25 mg/kg
[21] = test system: MDA-MB-361; test: Antitumor activity against human MDA-MB-361 cells implanted in mouse assessed as inhibition of regrowth at until day 16 and 20 at 50 mg/kg, iv once daily for 5 days; assay type: functional, organism-based; design: dose 50 mg/kg
[22] = test system: Mus musculus; test: Antitumor activity against human MDA-MB-361 cells implanted in mouse assessed as suppression of P70S6K phosphorylation at 100 mg/kg, iv after 8 hrs; assay type: functional, organism-based; design: dose 100 mg/kg
[23] = test system: Mus musculus; test: Antitumor activity against human MDA-MB-361 cells implanted in mouse assessed as suppression of Akt T308 phosphorylation at 100 mg/kg, iv after 8 hrs; assay type: functional, organism-based; design: dose 100 mg/kg
[24] = test system: Mus musculus; test: Antitumor activity against human MDA-MB-361 cells implanted in mouse assessed as suppression of Akt S473 phosphorylation at 100 mg/kg, iv after 8 hrs; assay type: functional, organism-based; design: dose 100 mg/kg
[25] = test system: Mus musculus; test: Antitumor activity against human MDA-MB-361 cells implanted in mouse assessed as suppression of S6 phosphorylation at 100 mg/kg, iv after 8 hrs; assay type: functional, organism-based; design: dose 100 mg/kg
[26] = target: Phosphatidylinositol 4,5-bisphosphate 3-kinase catalytic subunit beta isoform (Homo sapiens, UniProt P42338); test: Inhibition of PI3Kbeta
[27] = test system: Mus musculus; test: Antitumor activity against human MDA-MB-361 cells implanted in mouse assessed as suppression of P70S6K phosphorylation at 50 mg/kg, iv after 8 hrs; assay type: functional, organism-based; design: dose 50 mg/kg
[28] = test system: Mus musculus; test: Antitumor activity against human MDA-MB-361 cells implanted in mouse assessed as suppression of Akt T308 phosphorylation at 50 mg/kg, iv after 8 hrs; assay type: functional, organism-based; design: dose 50 mg/kg

Phosphatidylinositol 4,5-bisphosphate 3-kinase catalytic subunit alpha isoform, sequence (P42336 whole entry, canonical isoform): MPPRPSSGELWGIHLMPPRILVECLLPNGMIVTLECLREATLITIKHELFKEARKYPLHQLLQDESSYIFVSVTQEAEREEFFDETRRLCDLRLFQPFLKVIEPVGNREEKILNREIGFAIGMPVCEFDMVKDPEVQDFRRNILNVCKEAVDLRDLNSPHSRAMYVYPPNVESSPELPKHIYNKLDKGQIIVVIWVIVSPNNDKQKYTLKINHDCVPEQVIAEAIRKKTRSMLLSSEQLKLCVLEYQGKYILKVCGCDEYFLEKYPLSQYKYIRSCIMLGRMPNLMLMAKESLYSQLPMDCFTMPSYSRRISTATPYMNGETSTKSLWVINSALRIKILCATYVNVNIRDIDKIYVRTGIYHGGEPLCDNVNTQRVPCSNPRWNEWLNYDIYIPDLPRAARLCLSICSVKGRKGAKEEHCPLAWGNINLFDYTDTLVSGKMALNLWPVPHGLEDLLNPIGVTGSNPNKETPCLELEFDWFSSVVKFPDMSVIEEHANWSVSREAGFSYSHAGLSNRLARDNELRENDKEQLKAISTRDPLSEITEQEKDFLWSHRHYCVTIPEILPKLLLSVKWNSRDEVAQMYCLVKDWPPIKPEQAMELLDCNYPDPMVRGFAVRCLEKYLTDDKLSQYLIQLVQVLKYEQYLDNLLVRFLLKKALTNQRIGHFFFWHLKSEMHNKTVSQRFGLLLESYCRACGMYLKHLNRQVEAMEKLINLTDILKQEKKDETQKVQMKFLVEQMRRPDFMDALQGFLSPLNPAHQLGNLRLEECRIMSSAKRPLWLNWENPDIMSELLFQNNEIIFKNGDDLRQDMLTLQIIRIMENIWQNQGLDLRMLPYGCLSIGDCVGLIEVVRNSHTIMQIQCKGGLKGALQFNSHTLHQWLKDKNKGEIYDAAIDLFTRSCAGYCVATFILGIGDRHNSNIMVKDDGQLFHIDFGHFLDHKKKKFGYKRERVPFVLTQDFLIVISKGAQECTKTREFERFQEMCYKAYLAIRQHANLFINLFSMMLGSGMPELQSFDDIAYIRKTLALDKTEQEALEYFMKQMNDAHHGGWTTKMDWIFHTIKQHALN
Phosphatidylinositol 4,5-bisphosphate 3-kinase catalytic subunit gamma isoform, sequence (P48736 whole entry, canonical isoform): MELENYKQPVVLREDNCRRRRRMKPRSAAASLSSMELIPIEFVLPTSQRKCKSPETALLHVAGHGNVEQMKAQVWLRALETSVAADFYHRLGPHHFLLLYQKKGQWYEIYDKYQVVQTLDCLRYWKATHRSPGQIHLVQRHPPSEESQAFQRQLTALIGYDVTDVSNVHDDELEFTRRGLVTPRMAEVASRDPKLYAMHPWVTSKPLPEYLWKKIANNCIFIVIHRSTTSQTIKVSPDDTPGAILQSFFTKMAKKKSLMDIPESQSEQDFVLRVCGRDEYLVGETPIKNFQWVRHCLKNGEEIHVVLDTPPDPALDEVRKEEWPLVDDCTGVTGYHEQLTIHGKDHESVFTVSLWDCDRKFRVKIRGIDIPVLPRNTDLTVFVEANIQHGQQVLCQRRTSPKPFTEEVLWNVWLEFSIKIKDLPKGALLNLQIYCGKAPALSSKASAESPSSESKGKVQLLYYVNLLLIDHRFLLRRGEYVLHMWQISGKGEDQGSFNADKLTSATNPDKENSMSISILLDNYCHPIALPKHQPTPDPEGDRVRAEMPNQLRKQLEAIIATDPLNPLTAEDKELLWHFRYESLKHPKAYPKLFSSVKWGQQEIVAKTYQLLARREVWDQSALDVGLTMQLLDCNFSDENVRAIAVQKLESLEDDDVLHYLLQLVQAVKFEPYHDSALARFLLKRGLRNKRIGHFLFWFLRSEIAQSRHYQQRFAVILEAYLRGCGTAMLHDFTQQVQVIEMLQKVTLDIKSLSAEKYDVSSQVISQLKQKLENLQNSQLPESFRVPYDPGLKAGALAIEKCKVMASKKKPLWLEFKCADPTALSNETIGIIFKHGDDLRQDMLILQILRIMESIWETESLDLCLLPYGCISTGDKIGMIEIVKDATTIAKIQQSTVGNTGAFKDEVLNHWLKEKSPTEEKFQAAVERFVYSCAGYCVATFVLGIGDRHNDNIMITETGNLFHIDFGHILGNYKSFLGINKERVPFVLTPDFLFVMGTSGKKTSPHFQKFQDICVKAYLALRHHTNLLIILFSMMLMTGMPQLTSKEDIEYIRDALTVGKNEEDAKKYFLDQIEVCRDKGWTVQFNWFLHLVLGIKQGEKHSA
Phosphatidylinositol 4,5-bisphosphate 3-kinase catalytic subunit beta isoform, sequence (P42338 whole entry, canonical isoform): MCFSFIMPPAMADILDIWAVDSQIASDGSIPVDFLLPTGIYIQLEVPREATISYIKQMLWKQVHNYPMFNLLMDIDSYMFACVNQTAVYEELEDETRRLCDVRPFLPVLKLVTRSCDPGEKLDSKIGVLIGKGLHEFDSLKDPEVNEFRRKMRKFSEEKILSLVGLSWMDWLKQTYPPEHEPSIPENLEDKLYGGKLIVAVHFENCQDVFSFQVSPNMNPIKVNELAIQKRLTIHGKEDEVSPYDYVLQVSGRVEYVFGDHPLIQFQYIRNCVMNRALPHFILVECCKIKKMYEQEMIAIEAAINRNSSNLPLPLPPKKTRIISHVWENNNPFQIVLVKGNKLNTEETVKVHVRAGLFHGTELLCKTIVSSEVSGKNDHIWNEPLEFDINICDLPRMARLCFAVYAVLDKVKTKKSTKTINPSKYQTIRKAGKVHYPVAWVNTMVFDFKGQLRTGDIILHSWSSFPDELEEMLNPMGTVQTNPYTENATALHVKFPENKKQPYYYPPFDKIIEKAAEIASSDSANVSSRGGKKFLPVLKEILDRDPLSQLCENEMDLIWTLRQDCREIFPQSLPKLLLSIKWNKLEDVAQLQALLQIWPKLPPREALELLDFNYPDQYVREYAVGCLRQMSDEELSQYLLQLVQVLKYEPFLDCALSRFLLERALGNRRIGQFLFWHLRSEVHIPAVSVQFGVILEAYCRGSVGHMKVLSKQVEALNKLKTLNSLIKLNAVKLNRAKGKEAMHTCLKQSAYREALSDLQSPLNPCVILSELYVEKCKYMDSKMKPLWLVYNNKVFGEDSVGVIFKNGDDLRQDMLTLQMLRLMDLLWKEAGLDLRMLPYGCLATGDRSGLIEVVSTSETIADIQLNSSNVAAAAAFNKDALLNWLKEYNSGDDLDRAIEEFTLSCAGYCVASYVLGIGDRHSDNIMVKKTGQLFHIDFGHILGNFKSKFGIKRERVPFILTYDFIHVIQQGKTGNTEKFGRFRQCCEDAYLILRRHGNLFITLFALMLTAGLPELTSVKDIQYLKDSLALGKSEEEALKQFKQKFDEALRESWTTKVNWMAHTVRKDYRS

`CCNC(=O)c1ccc(NC(=O)Nc2ccc(-c3nc(N4CCOCC4)c4nnn(CC)c4n3)cc2)cc1` showed a solubility [1] of 1 µg/mL (≈ 1.94 µM), an IC50 [2] of 33 nM and a half-life [3] of 29 min. The IC50 [4] was 17.2 nM, the half-life [5] was > 30 min and the IC50 [6] was 29 nM. The IC50 [7] was 27 nM, the half-life ([8]; microsomes) was 16 min and the IC50 [9] was 0.56 nM. It also gave an IC50 [10] of 3 nM.
`CC(C)n1nnc2c(N3CCOCC3)nc(-c3ccc(NC(=O)Nc4ccc(C(N)=O)cc4)cc3)nc21` showed an IC50 [2] of 57 nM, an IC50 [6] of 38 nM and a half-life ([8]; liver microsomes) of 9 min. The IC50 [9] was 0.31 nM and the IC50 [10] was 3.6 nM.
`CC(C)n1nnc2c(N3CCOCC3)nc(-c3ccc(NC(=O)Nc4cccnc4)cc3)nc21` showed a solubility [1] of 1 µg/mL (≈ 2.18 µM), an IC50 [2] of 91 nM and an IC50 [6] of 39 nM. For the same compound, the half-life ([8]; liver microsomes) was 24 min and the IC50 [9] was 0.57 nM.
For `Cn1nnc2c(N3CCOCC3)nc(-c3ccc(NC(=O)Nc4cccs4)cc3)nc21`, the solubility [1] was 2 µg/mL (≈ 4.58 µM), the IC50 [2] was 366 nM and the IC50 [6] was 184 nM. The half-life ([8]; liver microsomes) was 9 min and the IC50 [9] was 3.7 nM.
Compound `CCn1nnc2c(N3CCOCC3)nc(-c3ccc(NC(=O)Nc4ccc(C(N)=O)cc4)cc3)nc21` has a solubility [1] of 6 µg/mL (≈ 12.3 µM), an IC50 [2] of 65 nM and an IC50 [4] of 12.2 nM. For the same compound, the IC50 [6] was 28 nM, the half-life ([8]; microsomes) was 21 min and the IC50 [9] was 0.39 nM. It also gave an IC50 [10] of 2.4 nM.
`CCn1nnc2c(N3CCOCC3)nc(-c3ccc(NC(=O)Nc4ccc(C(=O)NCCCN(C)C)cc4)cc3)nc21` showed a solubility [1] of 100 µg/mL (≈ 175 µM), an IC50 [2] of 116 nM and a half-life [3] of 26 min. For the same compound, the solubility [11] was 100 µg/mL (≈ 175 µM), the half-life [5] was 30 min and the IC50 [6] was 41 nM. For the same compound, the IC50 [7] was 44 nM, the half-life ([8]; liver microsomes) was 26 min and the IC50 [9] was 2.2 nM. It also gave an IC50 [10] of 2.4 nM.
In the case of `CCn1nnc2c(N3CCOCC3)nc(-c3ccc(NC(=O)Nc4ccc(C(=O)N5CCN(C)CC5)cc4)cc3)nc21`, the Activity [12] is reported as “Non-toxic”, the concentration at 8 h [13] is reported as 525 ng/mL and the half-life [3] is reported as > 30 min. For the same compound, the Activity [14] was “Active”, the Activity [15] was “Active” and the concentration at 8 h [16] was 2220 ng/mL. For the same compound, the Activity [17] was “Active”, the solubility [11] was 100 µg/mL (≈ 175 µM) and the Activity [18] was “Active”. For the same compound, the Activity [19] was “Active”, the half-life [5] was > 30 min and the Activity [20] was “inactive”. For the same compound, the Activity [21] was “inactive”, the Activity [22] was “Active” and the Activity [23] was “Active”. The Activity [24] was “Active”, the IC50 [7] was 5 nM and the half-life ([8]; liver microsomes) was 15 min. The Activity [25] was “Active”, the IC50 [26] was 7 nM and the IC50 [9] was 1.7 nM. For the same compound, the Activity [27] was “Active” and the Activity [28] was “Active”.
`CCn1nnc2c(N3CCOCC3)nc(-c3ccc(NC(=O)Nc4cccs4)cc3)nc21` showed a solubility [1] of 1 µg/mL (≈ 2.22 µM), an IC50 [2] of 133 nM and an IC50 [6] of 81 nM. It also gave a half-life ([8]; liver microsomes) of 10 min and an IC50 [9] of 3 nM.
In the case of `CC(C)n1nnc2c(N3CCOCC3)nc(-c3ccc(NC(=O)Nc4ccncc4)cc3)nc21`, the IC50 [2] is reported as 67 nM, the IC50 [6] is reported as 54 nM and the half-life ([8]; liver microsomes) is reported as > 30 min. For the same compound, the IC50 [9] was 0.51 nM.
Work on `CCn1nnc2c(N3CCOCC3)nc(-c3ccc(NC(=O)Nc4ccc(C(=O)OC)cc4)cc3)nc21` yielded an IC50 [2] of 285 nM, an IC50 [6] of 199 nM and a half-life ([8]; liver microsomes) of 15 min. The IC50 [9] was 2.55 nM.
With `CCn1nnc2c(N3CCOCC3)nc(-c3ccc(NC(=O)Nc4ccc(C(=O)N(C)C)cc4)cc3)nc21` the solubility [1] was 1 µg/mL (≈ 1.94 µM), the IC50 [2] was 17 nM and the half-life [5] was > 30 min. The IC50 [6] was 16 nM, the IC50 [7] was 8 nM and the half-life ([8]; liver microsomes) was 14 min. It also gave an IC50 [9] of 0.75 nM and an IC50 [10] of 1.4 nM.
`OCc1cccc(-c2nc(N3CCOCC3)c3nnn(C4CCN(Cc5ccccc5)CC4)c3n2)c1` showed an IC50 [2] of 393 nM and an IC50 [9] of 250 nM.
`CCn1nnc2c(N3CCOCC3)nc(-c3ccc(NC(=O)Nc4cccnc4)cc3)nc21` gave an IC50 [9] of 0.89 nM.
For `CCCCNC(=O)c1ccc(NC(=O)Nc2ccc(-c3nc(N4CCOCC4)c4nnn(CC)c4n3)cc2)cc1`, the IC50 [2] was 96 nM, the half-life [3] was 27 min and the half-life [5] was > 30 min. The IC50 [6] was 68 nM, the IC50 [7] was 47 nM and the half-life ([8]; liver microsomes) was 21 min. For the same compound, the IC50 [9] was 2.7 nM.
